According to patent publication US7932262B2 (Novartis AG, priority 2006, dated 2011):

Columns and labels:
[1] = system: PC-3 cells; assay: Cell Proliferation Assay (Cell Titer Glo), PC-3 cell line; assay type: cell-based; settings: Homo sapiens, PC-3, Cell Proliferation Assay, PC3; read-out: CPEC50 PC3
How it was run: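 PC-3 cells, 1000 cells/well, left to adhere 3-5 h, then exposed for 3 days at 37° C to compounds as 1:3 serial dilutions from 500× DMSO stocks diluted in growth medium. Medium then replaced with fresh medium and viability read by Cell Titer Glo luminescence.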

[2] = biological target: T1, PDK1 kinase (Homo sapiens, UniProt O15530); assay: PDK1 Kinase Alpha Screen Assay; assay type: biochemical; settings: PDK1 Kinase Alpha Screen Assay; read-out: PDK1 IC50
T1 sequence (O15530 1-556): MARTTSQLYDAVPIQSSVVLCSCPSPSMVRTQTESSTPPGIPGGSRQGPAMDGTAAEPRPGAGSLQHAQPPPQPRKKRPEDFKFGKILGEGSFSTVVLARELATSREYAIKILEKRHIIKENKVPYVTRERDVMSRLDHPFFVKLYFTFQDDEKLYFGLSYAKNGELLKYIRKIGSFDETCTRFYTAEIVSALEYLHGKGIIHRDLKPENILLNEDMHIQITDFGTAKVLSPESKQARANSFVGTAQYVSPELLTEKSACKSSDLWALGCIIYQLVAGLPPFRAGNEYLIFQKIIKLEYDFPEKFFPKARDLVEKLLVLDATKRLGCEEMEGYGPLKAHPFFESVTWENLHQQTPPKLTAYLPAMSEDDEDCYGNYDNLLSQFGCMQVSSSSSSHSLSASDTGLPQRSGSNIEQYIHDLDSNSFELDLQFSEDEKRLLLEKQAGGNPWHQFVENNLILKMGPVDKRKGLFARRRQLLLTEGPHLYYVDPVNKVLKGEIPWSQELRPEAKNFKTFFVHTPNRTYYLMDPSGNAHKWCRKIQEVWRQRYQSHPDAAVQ
How it was run: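 Compound in DMSO added to PDK1-4 peptide; PDK1/ATP mix starts reaction (final 50 nM peptide, 10 uM ATP). Runs 3-18 hours, stopped with 90 mM EDTA buffer. Antibody/bead mix added, developed overnight at room temperature, then AlphaScreen signal read.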

Row | SMILES | EC50 [1] | IC50 [2]
1 | Cc1ccc(C(=O)O)cc1-c1ccc2cnc(Nc3ccc(S(N)(=O)=O)cc3)nc2c1 [Compound 390, 4-methyl-3-(2-(4-sulfamoylphenylamino)quinazolin-7-yl)benzoic acid] | 5 to 10 µM | < 5 µM
2 | CC(=O)Nc1ccc(Nc2ncc3cccc(-c4ccc(NCCN5CCCC5)nc4)c3n2)cc1 [Compound 396, N-(4-(8-(6-(2-(pyrrolidin-1-yl)ethylamino)pyridin-3-yl)quinazolin-2-ylamino)phenyl)acetamide] | 5 to 10 µM | < 5 µM
3 | CS(=O)(=O)c1cccc(Nc2ncc3cccc(-c4ccc(NCCN5CCCC5)nc4)c3n2)c1 [Compound 402, N-(3-(methylsulfonyl)phenyl)-8-(6-(2-(pyrrolidin-1-yl)ethylamino)pyridin-3-yl)quinazolin-2-amine] | 5 to 10 µM | < 5 µM
4 | Nc1ccc(S(=O)(=O)N(CCN2CCCC2)c2ncc3cccc(OC4CCNCC4)c3n2)cc1 [Compound 422, 4-amino-N-(8-(piperidin-4-yloxy)quinazolin-2-yl)-N-(2-(pyrrolidin-1-yl)ethyl)benzenesulfonamide] | 5 to 10 µM | 5 to 10 µM
5 | c1cc(-c2ccc(NCCN3CCCC3)nc2)c2nc(Nc3ccc(N4CCOCC4)nc3)ncc2c1 [Compound 424, N-(6-morpholinopyridin-3-yl)-8-(6-(2-(pyrrolidin-1-yl)ethylamino)pyridin-3-yl)quinazolin-2-amine] | < 5 µM | < 5 µM
6 | O=S(=O)(c1ccc(Nc2ncc3cccc(-c4ccc(NCCN5CCCC5)nc4)c3n2)cc1)N1CCOCC1 [Compound 425, N-(4-(morpholinosulfonyl)phenyl)-8-(6-(2-(pyrrolidin-1-yl)ethylamino)pyridine-3-yl)quinazolin-2-amine] | < 5 µM | < 5 µM
7 | c1ccc(Nc2ncc3cccc(-c4ccc(NCCN5CCCC5)nc4)c3n2)cc1 [Compound 426, N-phenyl-8-(6-(2-(pyrrolidin-1-yl)ethylamino)pyridin-3-yl)quinazolin-2-amine] | < 5 µM | < 5 µM
8 | N#Cc1ccc(Nc2ncc3cccc(-c4ccc(NCCN5CCCC5)nc4)c3n2)cc1 [Compound 427, 4-(8-(6-(2-(pyrrolidin-1-yl)ethylamino)pyridin-3-yl)quinazolin-2-ylamino)benzonitrile] | < 5 µM | < 5 µM
9 | Fc1cc(F)cc(Nc2ncc3cccc(-c4ccc(NCCN5CCCC5)nc4)c3n2)c1 [Compound 428, N-(3,5-difluorophenyl)-8-(6-(2-(pyrrolidin-1-yl)ethylamino)pyridin-3-yl)quinazolin-2-amine] | < 5 µM | < 5 µM
10 | NS(=O)(=O)c1ccc(Nc2ncc3c(Br)ccc(OC4CCNCC4)c3n2)cc1 [Compound 429, 4-(5-bromo-8-(piperidin-4-yloxy)quinazolin-2-ylamino)benzenesulfonamide] | 5 to 10 µM | < 5 µM
11 | O=S(=O)(c1ccc(Nc2ncc3c(Br)ccc(OC4CCNCC4)c3n2)cc1)N1CCOCC1 [Compound 430, 5-bromo-N-(4-(morpholinosulfonyl)phenyl)-8-(piperidin-4-yloxy)quinazolin-2-amine] | < 5 µM | < 5 µM
12 | Fc1cc(Nc2ncc3cccc(-c4ccc(NCCN5CCCC5)nc4)c3n2)ccc1N1CCOCC1 [Compound 431, N-(3-fluoro-4-morpholinophenyl)-8-(6-(2-(pyrrolidin-1-yl)ethylamino)pyridine-3-yl)quinazolin-2-amine] | < 5 µM | < 5 µM
13 | CN1CCN(c2ccc(-c3cccc4cnc(Nc5ccc(N6CCOCC6)c(F)c5)nc34)cn2)CC1 [Compound 432, N-(3-fluoro-4-morpholinophenyl)-8-(6-(4-methylpiperazin-1-yl)pyridin-3-yl)quinazolin-2-amine] | < 5 µM | < 5 µM

Next, values leading:

Row | EC50 [1] | IC50 [2] | SMILES
14 | < 5 µM | < 5 µM | c1cc(-c2ccc(NCCN3CCCC3)nc2)c2nc(Nc3ccc4[nH]cnc4c3)ncc2c1 [Compound 393, N-(1H-benzo[d]imidazol-5-yl)-8-(6-(2-(pyrrolidin-1-yl)ethylamino)pyridin-3-yl)quinazolin-2-amine]
15 | < 5 µM | < 5 µM | COc1cccc(Nc2ncc3cccc(-c4ccc(NCCN5CCCC5)nc4)c3n2)c1 [Compound 395, N-(3-methoxyphenyl)-8-(6-(2-(pyrrolidin-1-yl)ethylamino)pyridin-3-yl)quinazolin-2-amine]
16 | < 5 µM | < 5 µM | N#Cc1cccc(Nc2ncc3cccc(-c4ccc(NCCN5CCCC5)nc4)c3n2)c1 [Compound 397, 3-(8-(6-(2-(pyrrolidin-1-yl)ethylamino)pyridin-3-yl)quinazolin-2-ylamino)benzonitrile]
17 | < 5 µM | < 5 µM | Clc1cccc(Nc2ncc3cccc(-c4ccc(NCCN5CCCC5)nc4)c3n2)c1 [Compound 398, N-(3-chlorophenyl)-8-(6-(2-(pyrrolidin-1-yl)ethylamino)pyridin-3-yl)quinazolin-2-amine]
18 | < 5 µM | < 5 µM | O=S(=O)(c1cccc(Nc2ncc3cccc(-c4ccc(NCCN5CCCC5)nc4)c3n2)c1)N1CCOCC1 [Compound 399, N-(3-(morpholinosulfonyl)phenyl)-8-(6-(2-(pyrrolidin-1-yl)ethylamino)pyridin-3-yl)quinazolin-2-amine]
19 | < 5 µM | < 5 µM | CNC(=O)Cc1ccc(Nc2ncc3cccc(-c4ccc(NCCN5CCCC5)nc4)c3n2)cc1 [Compound 400, N-methyl-2-(4-(8-(6-(2-(pyrrolidin-1-yl)ethylamino)pyridin-3-yl)quinazolin-2-ylamino)phenyl)acetamide]
20 | < 5 µM | < 5 µM | CNC(=O)Cc1cccc(Nc2ncc3cccc(-c4ccc(NCCN5CCCC5)nc4)c3n2)c1 [Compound 401, N-methyl-2-(3-(8-(6-(2-(pyrrolidin-1-yl)ethylamino)pyridin-3-yl)quinazolin-2-ylamino)phenyl)acetamide]
21 | < 5 µM | < 5 µM | O=C(c1ccc(Nc2ncc3cccc(-c4ccc(NCCN5CCCC5)nc4)c3n2)cc1)N1CCOCC1 [Compound 403, morpholino(4-(8-(6-(2-(pyrrolidin-1-yl)ethylamino)pyridin-3-yl)quinazolin-2-ylamino)phenyl)methanone]
22 | < 5 µM | < 5 µM | NS(=O)(=O)c1ccc(Nc2ncc3cccc(-c4cnc(NCCN5CCCC5)c(C(F)(F)F)c4)c3n2)cc1 [Compound 404, 4-(8-(6-(2-(pyrrolidin-1-yl)ethylamino)-5-(trifluoromethyl)pyridin-3-yl)quinazolin-2-ylamino)benzenesulfonamide]
23 | < 5 µM | < 5 µM | COc1ccc(Oc2cccc3cnc(Nc4ccc(S(N)(=O)=O)cc4)nc23)cn1 [Compound 410, 4-(8-(6-methoxypyridin-3-yloxy)quinazolin-2-ylamino)benzenesulfonamide]
24 | < 5 µM | < 5 µM | NS(=O)(=O)c1ccc(Nc2ncc3cccc(Oc4ccc(F)nc4)c3n2)cc1 [Compound 413, 4-(8-(6-fluoropyridin-3-yloxy)quinazolin-2-ylamino)benzenesulfonamide]
25 | < 5 µM | < 5 µM | CN1CCN(c2ccc(-c3cccc4cnc(Nc5ccc(N6CCOCC6)nc5)nc34)cn2)CC1 [Compound 423, 8-(6-(4-methylpiperazin-1-yl)pyridin-3-yl)-N-(6-morpholinopyridin-3-yl)quinazolin-2-amine]
